Results published in patent US20210239702A1, “METHODS FOR PREDICTING RESPONSIVENESS OF LUNG CANCER PATIENTS TO HER2-TARGETING THERAPIES” (MEMORIAL SLOAN KETTERING CANCER CENTER, priority 2018, published 2021).

Tests used:
[1] = tested on: HER2-amplified salivary gland cancers; settings: FLIM-FRET positive in 3/3
From the text: (§1) Patients with stage 4 or recurrent HER2 mutant lung cancers were enrolled in the cohort, as illustrated in the basket trial scheme in FIG. 1. Other cohorts of this basket trial included HER2 amplified lung, bladder and other solid tumors, as illustrated by FIG. 1. HER2 mutations were identified through next generation sequencing (NGS) including exon 20 insYVMA, insGSP, insTGT, single base pair substitutions L755A, L755S, V777L, V659E, S310F or other likely activating mutations. Other inclusion criteria included age (≥18 years old), Karnofsky performance status (≥70%), measurable disease by Response Evaluation Criteria in Solid Tumors (RECIST) v1.1, and adequate left ventricular, bone marrow, and hepatic function.

HER2 mutant lung cancers = tested on: HER2 mutant lung cancers
From the text: as §1
Physical examination and safety assessments were performed every 3 weeks. Tumor assessments using contrast enhanced computed tomography of the chest, abdomen, and pelvis were performed at baseline, week 6, week 12, and every 12 weeks thereafter until disease progression was observed. Brain imaging was not routinely performed unless clinically indicated. Left ventricular ejection fraction measurements by echocardiography or multi-gated acquisition scan were performed at baseline then every 3 months. […] Secondary objectives included assessment of progression-free survival (PFS) and toxicity according to the National Cancer Institute Common Terminology Criteria for Adverse Events version 4.1 (NCI CTCAE v4.1). The molecular associations between HER2 mutations, HER2 amplification and HER2 protein expression were examined using different molecular diagnostic assays whenever archival tissue was available. NGS assessed for HER2 mutation and amplification, fluorescence in situ hybridization (FISH) assessed for HER2 amplification, and HER2 protein overexpression was assessed by immunohistochemistry (IHC) and quantitative mass spectrometry. FISH was performed using FDA approved probe sets (PathVysion, Abbott Molecular, Chicago, Ill. and HER2 IQFISH pharmDx, Agilent, Santa Clara, Calif.) and positive HER2 amplification was defined as HER2/CEP17 ratio ≥2.0. HER2 protein by IHC was assessed using the 4B5 Ventana antibody (Ventana Medical Systems, Oro Valley Ariz.). Quantitative HER2 protein by selected reaction monitoring mass spectrometry on fixed-formalin paraffin-embedded tissue was performed using methods previously validated in breast cancers, with ≥740 amol/ug as the cutoff for high HER2 expression (see Nuciforo P., et al., Mol. Oncol., 10:138-147 (2016)).
Target accrual was a minimum of 7 patients (stage 1) and maximum of 18 patients (stage 1 and 2) in each cohort. The primary endpoint was best confirmed overall response rate (ORR) per RECIST v1.1. The Simon's optimal two-stage design was employed with a multiple testing adjusted type I error rate for each cohort. For a targeted agent where higher response rates were expected, a true ORR of ≤10% was considered unacceptable (null hypothesis), whereas a true ORR of ≥40% merited further study (alternative hypothesis). In the first stage, 7 patients were accrued; if there were no responses observed at interim analysis of the 7 patients in a particular cohort, the cohort was closed. Otherwise, 11 additional patients were accrued for a total of 18 patients. […] The overall family-wise error rate at the study level was <10%. The exact 95% CI for ORR was calculated using the Clopper-Pearson method. PFS time was estimated by the Kaplan-Meier method. Follow-up time was calculated from the start of treatment to the most recent patient follow-up assessment.

ado-trastuzumab emtansine was tested, and the “response among FLIM-FRET positive patients” value [1] was “all 3 patients responded”, the “outcome of patients with active untreated brain metastases at enrollment” value (HER2 mutant lung cancers; 2 patients, first response assessment) was “both patients had progression of disease systemically and in the central nervous system” and the “patients with progression of disease as best response” value (HER2 mutant lung cancers; 3 of 18 patients) was 17%. The “responders among patients pretreated with prior systemic therapy” value (HER2 mutant lung cancers; 6 of 15 pretreated patients) was 40%, the “median PFS for the responders” value (HER2 mutant lung cancers; 95% CI 4 months to not reached) was 6 months and the “median PFS for all patients” value (HER2 mutant lung cancers; N=18, 95% CI 3 to 9 months) was 5 months. For the same substance, the “overall response rate (ORR, all partial and confirmed)” value (HER2 mutant lung cancers; RECIST v1.1, 3.6 mg/kg IV every 21 days, 18 patients, 95% CI 22-69%) was 44%, the “patients who achieved stable disease” value (HER2 mutant lung cancers; in vivo) was 39% and the “patients with confirmed radiologic partial response” value (HER2 mutant lung cancers; out of 18 patients with ERBB2-mutant lung cancers) was 8. The “longest PFS observed / durable disease control” value (HER2 mutant lung cancers; patient with stable disease as best response, -27% tumor shrinkage) was no less than 11 months, the “median time to response from start of treatment” value (HER2 mutant lung cancers; range 1 to 4 months) was 2 months and the “median duration of response” value (HER2 mutant lung cancers; range 2 to 9 months) was 4 months.
